pIC50: −log10 of the molar value. Counter-ions that a name gives are not always drawn.

One experiment concerns the target T1, DPP-IV (Homo sapiens, UniProt P27487).
T1 construct: The assay is conducted by adding 20 µg solubilized Caco-2 protein; host or cells: Caco-2 (differentiated), NP-40 solubilized cell extract
As to the kind of experiment: Caco-2 DPP-IV Assay (inhibition of DPP-IV activity from human colonic carcinoma cell extracts). It counts as biochemical. The settings on record: Caco-2 cell extract, substrate H-Alanine-Proline-pNA, 8-point dose-response curves. On the procedure:
The human colonic carcinoma cell line Caco-2 was obtained from the American Type Culture Collection (ATCC HTB 37). Differentiation of the cells to induce DPP-IV expression was accomplished as described by Reisher, et al. in an article entitled "Increased expression of intestinal cell line Caco-2" in Proc. Natl. Acad. Sci., Vol. 90, pgs. […] Cell extract is prepared from cells solubilized in 10mM Tris HCI, 0.15 M NaCl, 0.04 t.i.u.aprotinin, 0.5% nonidet-P40, pH 8.0, which is centrifuged at 35,000 g for 30 min. at 4 °C. to remove cell debris. The assay is conducted by adding 20 µg solubilized Caco-2 protein, diluted to a final volume of 125 µl in assay buffer (25 mM Tris HCI pH 7.4, 140mM NaCl, 10 mM KCI, 1% bovine serum albumin) to microtiter plate wells. After a 60 min. incubation at room temperature, the reaction is initiated by adding 25 µl of 1 mM substrate (H-Alanine-Proline-pNA; pNA is p-nitroaniline). […] A standard curve of free p-nitroaniline is generated using 0-500 µM solutions of free pNA in assay buffer. The curve generated is linear and is used for interpolation of substrate consumption (catalytic activity in nmoles substrate cleaved /min).
The potency of the test compounds as DPP-IV inhibitors, expressed as IC50, is calculated from 8-point, dose-response curves using a 4-parameter logistic function.

The target of the next experiment is T2, rat plasma DPP-IV (Rattus norvegicus, UniProt P14740).
T2 construct: from tissue; host or cells: rat plasma
As to the kind of experiment: DPP-IV activity in rat plasma (modified Kubota assay). It counts as biochemical. Particulars: substrate H-Glycine-Proline-AMC, 8-point dose-response curves. On the procedure: (§1) Briefly, 5 µl of plasma are added to 96-well flat-bottom micortiter plates (Falcon), followed by the addition of 5 µl of 80 mM MgCl2 in incubation buffer (25 mMHEPES, 140 mM NaCl, 1% RIA-grade BSA, pH 7.8). After a 60 min. incubation at room temperature, the reaction is initiated by the addition of 10 µl of incubation buffer containing 0.1 mM substrate (H-Glycine-Proline-AMC; AMC is 7-amino-4-methylcoumarin). The plates are covered with aluminum foil (or kept in the dark) and incubated at room temperature for 20 min. […] A fluorescence-concentration curve of free AMC is generated using 0-50 µM solutions of AMC in assay buffer. The curve generated is linear and is used for interpolation of substrate consumption (catalytic activity in nmoles substrate cleaved/min). As with the previous assay, the potency of the test compounds as DPP-IV inhibitors, expressed as IC50, is calculated from 8-point, dose-response curves using a 4 parameter logistic function.

Another experiment has as its target T3, human plasma DPP-IV (Homo sapiens, UniProt P27487).
T3 construct: from tissue; host or cells: human plasma
The experiment in a line: DPP-IV activity in human plasma (modified Kubota assay). The settings on record: substrate H-Glycine-Proline-AMC, 8-point dose-response curves. It counts as biochemical. Here is the method: as §1

A short description of experiment [1]: Oral glucose challenge in insulin resistant high fat fed rats: plasma glucose excursion. The experiment is classed as in vivo, Male Sprague-Dawley rats. Particulars: 10 µmol/kg orally; glucose 1 g/kg p.o.; % decrease of area under the plasma glucose curve compared to vehicle-treated control animals. The text has this: (§2) More specifically, for example, the compounds of formula 1, and their corresponding pharmaceutically acceptable acid addition salts, improve early insulin response to an oral glucose challenge and, therefore, are useful in treating non-insulin-dependent diabetes mellitus. The ability of the compounds of formula I, and their corresponding pharmaceutically acceptable acid addition salts, to improve early insulin response to an oral glucose challenge may be measured in insulin resistant rats according to the following method:
(§3) Male Sprague-Dawley rats that had been fed a high fat diet (saturated fat = 57% calories) for 2-3 weeks were fasted for approximately 2 hours on the day of testing, divided into groups of 7-10, and dosed orally with 10 µmol/kg of test compound in carboxymethylcellulose. […] Blood samples, obtained at various time-points from chronic jugular vein catheters, were analyzed for plasma glucose concentration. Data are expressed as % decrease of the area under the plasma glucose curve compared to vehicle-treated control animals.

In the next experiment the target is T4, plasma DPP-IV (Rattus norvegicus, UniProt P14740).
T4 construct: from tissue; host or cells: plasma of male Sprague-Dawley rats dosed orally (in vivo / ex vivo read-out)
The experiment in a line: Plasma DPP-IV activity after oral dosing in insulin resistant rats (oral glucose challenge study). It counts as in vivo, Male Sprague-Dawley rats. Particulars: 10 µmol/kg orally, ten minutes prior to glucose (1 g/kg p.o.), n=7-8, read-out: inhibition of plasma DPP-IV activity during the study.
Excerpt: as §2, §3

T1 sequence (P27487 whole entry): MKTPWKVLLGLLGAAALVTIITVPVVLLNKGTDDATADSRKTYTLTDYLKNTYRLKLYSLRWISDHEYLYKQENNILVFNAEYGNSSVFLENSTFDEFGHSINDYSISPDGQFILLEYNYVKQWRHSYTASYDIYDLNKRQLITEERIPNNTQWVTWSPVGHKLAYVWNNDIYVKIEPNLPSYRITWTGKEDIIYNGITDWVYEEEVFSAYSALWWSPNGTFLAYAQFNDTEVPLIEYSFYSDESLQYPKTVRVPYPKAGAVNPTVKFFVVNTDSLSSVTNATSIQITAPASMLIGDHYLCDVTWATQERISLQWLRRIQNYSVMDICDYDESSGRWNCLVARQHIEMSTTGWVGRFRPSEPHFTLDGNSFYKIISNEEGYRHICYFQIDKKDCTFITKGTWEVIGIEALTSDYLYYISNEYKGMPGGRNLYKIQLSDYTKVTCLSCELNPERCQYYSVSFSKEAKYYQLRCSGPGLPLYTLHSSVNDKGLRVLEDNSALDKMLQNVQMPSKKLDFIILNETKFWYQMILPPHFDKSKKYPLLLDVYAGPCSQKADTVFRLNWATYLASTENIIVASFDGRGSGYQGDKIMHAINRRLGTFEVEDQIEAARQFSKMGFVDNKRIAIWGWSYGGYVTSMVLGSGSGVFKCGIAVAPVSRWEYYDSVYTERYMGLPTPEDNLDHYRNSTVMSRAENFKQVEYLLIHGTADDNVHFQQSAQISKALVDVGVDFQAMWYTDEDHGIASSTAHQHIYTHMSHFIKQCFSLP
T3 sequence (P27487 39-766 limits assumed): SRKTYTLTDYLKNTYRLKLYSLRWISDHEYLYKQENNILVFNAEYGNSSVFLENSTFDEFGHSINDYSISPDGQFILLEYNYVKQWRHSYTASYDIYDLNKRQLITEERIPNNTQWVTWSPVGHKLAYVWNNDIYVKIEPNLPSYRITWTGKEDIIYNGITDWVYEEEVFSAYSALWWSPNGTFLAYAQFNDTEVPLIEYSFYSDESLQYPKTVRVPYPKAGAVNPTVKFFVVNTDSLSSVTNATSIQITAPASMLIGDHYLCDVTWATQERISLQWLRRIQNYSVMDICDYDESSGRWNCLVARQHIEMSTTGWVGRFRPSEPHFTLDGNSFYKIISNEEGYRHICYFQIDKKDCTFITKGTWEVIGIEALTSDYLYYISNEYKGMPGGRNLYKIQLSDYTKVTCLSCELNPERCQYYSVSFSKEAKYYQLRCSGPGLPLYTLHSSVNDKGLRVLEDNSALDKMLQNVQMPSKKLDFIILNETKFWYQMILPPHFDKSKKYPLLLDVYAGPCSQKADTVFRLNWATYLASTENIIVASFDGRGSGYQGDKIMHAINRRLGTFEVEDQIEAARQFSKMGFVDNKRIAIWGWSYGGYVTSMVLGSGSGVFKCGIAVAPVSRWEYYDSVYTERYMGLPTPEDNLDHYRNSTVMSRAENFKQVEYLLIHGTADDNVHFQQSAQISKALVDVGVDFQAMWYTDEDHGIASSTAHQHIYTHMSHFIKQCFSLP
T2 sequence (P14740 37-767 limits assumed): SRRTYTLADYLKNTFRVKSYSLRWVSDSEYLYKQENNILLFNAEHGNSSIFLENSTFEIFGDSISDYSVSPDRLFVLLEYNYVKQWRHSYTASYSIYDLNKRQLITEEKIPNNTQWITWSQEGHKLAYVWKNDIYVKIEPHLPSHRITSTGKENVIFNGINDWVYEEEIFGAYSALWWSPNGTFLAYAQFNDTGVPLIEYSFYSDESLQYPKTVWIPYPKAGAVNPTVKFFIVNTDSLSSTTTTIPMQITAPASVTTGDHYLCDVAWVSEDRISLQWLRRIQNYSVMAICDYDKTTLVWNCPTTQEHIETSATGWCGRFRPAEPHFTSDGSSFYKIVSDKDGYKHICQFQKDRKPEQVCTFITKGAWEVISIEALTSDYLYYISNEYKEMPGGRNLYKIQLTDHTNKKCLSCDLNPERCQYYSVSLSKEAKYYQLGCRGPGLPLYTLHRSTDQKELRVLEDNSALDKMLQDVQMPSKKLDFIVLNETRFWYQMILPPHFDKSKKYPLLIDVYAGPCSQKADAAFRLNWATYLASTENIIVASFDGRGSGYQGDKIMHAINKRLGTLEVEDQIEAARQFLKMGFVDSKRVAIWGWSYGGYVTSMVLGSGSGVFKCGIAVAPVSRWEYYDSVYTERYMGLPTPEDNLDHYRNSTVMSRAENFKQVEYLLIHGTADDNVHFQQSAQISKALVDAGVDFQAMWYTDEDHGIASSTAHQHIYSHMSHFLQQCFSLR
T4 sequence (P14740 37-767 limits assumed): as above

`N#C[C@@H]1CCCN1C(=O)CNC1CCC(NS(=O)(=O)c2ccccc2)CC1` (stereo partly drawn) [Ex. 2M, 1-[[[4-[(phenylsulfonyl)amino]cyclohexyl]amino]acetyl]-2-cyano-(S)-pyrrolidine, monohydrochloride]: the pIC50 (usually −log10 of the IC50, conventionally taken in molar units) against DPP-IV is 7.47; against rat plasma DPP-IV, 8.22; against human plasma DPP-IV, 8.00.
The corresponding values for `N#C[C@@H]1CCCN1C(=O)CNC1CCC(Oc2ccc(C(F)(F)F)cc2)CC1` (stereo partly drawn) [Ex. 2EE, 1-[[[4-[4-(trifluoromethyl)phenoxy]cyclohexyl]amino]acetyl]-2-cyano-(S)-pyrrolidine, monohydrochloride] are 7.64, 7.34 and 6.82.
In the case of `N#C[C@@H]1CCCN1C(=O)CNC1CCC(Nc2nc3cc(Cl)ccc3s2)CC1` (stereo partly drawn) [Ex. 2Y, 1-[[[4-[(5-chloro-2-benzothiazolyl)amino]cyclohexyl]amino]acetyl]-2-cyano-(S)-pyrrolidine, dihydrochloride], the pIC50 against DPP-IV was 7.92; at rat plasma DPP-IV it was 7.43; on human plasma DPP-IV it was 6.91.
In the case of `CC(C)(C)C(=O)NC1CCC(NCC(=O)N2CCC[C@H]2C#N)CC1` (stereo partly drawn) [Ex. 2U, 1-[[[4-[(2,2-dimethyl-1-oxopropyl)amino]cyclohexyl]amino]acetyl]-2-cyano-(S)-pyrrolidine, monohydrochloride], the pIC50 against DPP-IV is 7.41; against rat plasma DPP-IV, 7.85; against human plasma DPP-IV, 7.57.
`N#C[C@@H]1CCCN1C(=O)CNC1CCN(S(=O)(=O)c2ccc(Cl)cc2)CC1` [Ex. 3, 1-[[[1-[(4-Chlorophenyl)sulfonyl]-4-piperidinyl]amino]acetyl]-2-cyano-(S)-pyrrolidine, monohydrochloride]: the pIC50 on DPP-IV was 6.91; on rat plasma DPP-IV it was 6.97; at human plasma DPP-IV, 6.69.
With `N#C[C@@H]1CCCN1C(=O)CNC1CCC(Nc2ccnc(Cl)n2)CC1` (stereo partly drawn) [Ex. 2S, 1-[[[4-[(2-chloro-4-pyrimidinyl)amino]cyclohexyl]amino]acetyl]-2-cyano-(S)-pyrrolidine, dihydrochloride], the pIC50 is 8.52 against DPP-IV, 8.70 against rat plasma DPP-IV and 8.40 against human plasma DPP-IV.
On to `N#C[C@@H]1CCCN1C(=O)CNC1CCC(NC(=O)c2ccccc2)CC1` (stereo partly drawn) [Ex. 2N, 1-[[[4-(benzoylamino)cyclohexyl]amino]acetyl]-2-cyano-(S)-pyrrolidine], for which the pIC50 against DPP-IV was 8.30; at rat plasma DPP-IV, 8.30; on human plasma DPP-IV it was 8.00. The “Decrease of plasma glucose excursion at 10 µmovkg (p=0.01)” value in experiment [1] stood at 39%. Besides, the inhibition (in general, the percentage by which the read-out fell short of the control) at 10 µmol/kg on plasma DPP-IV turned out to be 80%.
For `CC(C)(CNc1ccc(Cl)cn1)NCC(=O)N1CCC[C@H]1C#N` [Ex. 1, 1-[[[2-[(5-Chloro-2-pyridinyl)amino]-1,1-dimethylethyl]amino]acetyl]-2-cyano-(S)-pyrrolidine, monohydrochloride], the pIC50 is 8.70 on DPP-IV, 8.22 against rat plasma DPP-IV and 7.52 against human plasma DPP-IV.
For `N#Cc1ccc(NC2CCC(NCC(=O)N3CCC[C@H]3C#N)CC2)cc1` (stereo partly drawn) [Ex. 2W, 1-[[[4-[(4-cyanophenyl)amino]cyclohexyl]amino]acetyl]-2-cyano-(S)-pyrrolidine, dihydrochloride] the same measures were 7.89, 8.15 and 7.72.

The record behind these values is EP1296974B1, “2-CYANOPYRROLIDINE DERIVATIVES AND THEIR USE AS MEDICAMENTS” (NOVARTIS AG, priority 2000, dated 2001).
